Assay [1] relates to S. cerevisiae. Kind of assay: Yeast replicative lifespan by micro-manipulation. The note with it: for Average lifespan, growth on resveratrol: wild type untreated 21.0.
Assay [2] has as its target T1, SIRT1 deacetylase (Homo sapiens, UniProt Q96EB6).
T1 construct: purchased BIOMOL
T1 sequence (Q96EB6 1-747): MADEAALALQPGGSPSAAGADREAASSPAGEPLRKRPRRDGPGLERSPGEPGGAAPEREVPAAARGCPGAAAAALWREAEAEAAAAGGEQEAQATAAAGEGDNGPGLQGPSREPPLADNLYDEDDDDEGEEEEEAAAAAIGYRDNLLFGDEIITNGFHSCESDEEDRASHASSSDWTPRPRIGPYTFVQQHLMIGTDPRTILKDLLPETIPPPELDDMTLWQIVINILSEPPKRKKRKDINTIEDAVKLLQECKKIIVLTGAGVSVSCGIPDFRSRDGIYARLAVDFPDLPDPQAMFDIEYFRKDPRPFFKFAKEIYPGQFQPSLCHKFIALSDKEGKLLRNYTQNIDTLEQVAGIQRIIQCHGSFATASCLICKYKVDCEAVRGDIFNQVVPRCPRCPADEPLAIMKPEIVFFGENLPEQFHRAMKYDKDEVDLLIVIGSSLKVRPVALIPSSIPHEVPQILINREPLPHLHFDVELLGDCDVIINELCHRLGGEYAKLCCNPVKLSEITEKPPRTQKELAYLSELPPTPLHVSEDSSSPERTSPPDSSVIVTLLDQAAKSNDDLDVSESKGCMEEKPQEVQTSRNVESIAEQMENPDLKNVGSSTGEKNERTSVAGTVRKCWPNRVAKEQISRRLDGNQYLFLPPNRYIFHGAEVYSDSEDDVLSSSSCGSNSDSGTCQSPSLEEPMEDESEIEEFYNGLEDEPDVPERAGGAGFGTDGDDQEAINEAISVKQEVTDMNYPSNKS
Kind of assay: High-throughput SIRT1 screening protocol (384 well). The following applies: 200 μM NAD+, 5 μM Fluor de Lys-SIRT1 substrate; roughly 50 μM. It counts as biochemical. The protocol:
The reaction mixture contains (final): 0.5 units/reaction SIRT1 deacetylase (BIOMOL); 200 μM NAD^+; 5 μM Fluor de Lys-SIRT1 substrate (BIOMOL); buffer (25 mM Tris/Cl, pH 8.0, 137 mM NaCl, 2.7 mM KCl, 1 mM MgCl2, and 1 mg/ml BSA). In addition, a reaction mixture containing no enzyme was made so that each well receiving compound has a corresponding “no enzyme control” well. Reactions were performed in black 384 well plates (NUNC) in a final volume of 25 μl/well.
The reactions were started by combining enzyme and substrate in a reaction mixture immediately prior to aliquoting in plates (or substrate only for “no enzyme control” plates). Mixture were aliquoted to plates using Biotek μFill (Biotek Instruments). Control mixtures were manually added to designated wells. A library compound was added at a desired concentration by pin transfer to both “with enzyme” and “no enzyme” plates. Compounds were added in at least triplicate (with enzyme reaction in duplicate and no enzyme controls) at a final concentration of roughly 50 μM. The plates were incubated at 37° C. for 30-60 minutes. Then 25 μl of 1× Developer II (BIOMOL) plus 2 mM nicotinamide were added to all wells to stop the reactions. The reactions were left for at least 30 minutes at 37° C. for the signal to develop. The plates were read in a microplate-reading fluorometer capable of excitation at a wavelength in the range of 350-380 nm and detection of emitted light in the range of 440-460 nm. A read time of 0.1 sec per well was used.

Assay [3] concerns the target T2, recombinant human SIRT1 (Homo sapiens, UniProt Q96EB6).
T2 sequence (Q96EB6 1-747): T1 sequence (Q96EB6 1-747)
Kind of assay: SIRT1 fluorescent deacetylation assay (p53-382 acetylated peptide substrate). It counts as biochemical. The following applies: 100 μM resveratrol. An excerpt: To identify compounds that modulate SIRT1 activity, we screened a number of small molecule libraries using a fluorescent deacetylation assay in 96-well plates^26. The substrate used in the assay was a fluorogenic peptide based on the sequence encompassing the p53-K382 acetylation site, a known target of SIRT1 in vivo^20,21,27. This substrate was preferred over a variety of other fluorogenic peptide substrates that were based on other known HDAC targets (FIG. 5). The small molecule libraries included analogues of nicotinamide, ε-acetyl lysine, NAD^+, nucleotides, nucleotide analogues and purinergic ligands. From the initial screen, several sirtuin inhibitors were found (Supplementary Table 7). However, the most striking outcome was the identification of two compounds, quercetin and piceatannol, that stimulated SIRT1 activity five and eight-fold, respectively (Table 1). Both quercetin and piceatannol have been previously identified as protein kinase inhibitors^28,29.
His6-tagged recombinant SIRT1 and GST-tagged recombinant Sir2 were prepared as previously described^26. From 0.1 to 1 μg of SIRT1 and 1.5 μg of Sir2 were used per deacetylation assay (in 50 μl total reaction) as previously described^26. SIRT1 assays and certain of those for Sir2 employed the p53-382 acetylated substrate (‘Fluor de Lys-SIRT1’, BIOMOL) rather than FdL.
Themed compound libraries (BIOMOL) were used for primary and secondary screening. […] For water soluble compounds and negative controls, 1% v/v DMSO was added to the assay. […] HeLa cells were grown and the cellular deacetylation assays were performed and read, as above, but in full-volume 96-well microplates (Corning Costar 3595). Unless otherwise indicated all initial rate measurements were means of three or more replicates, obtained with single incubation times, at which point 5% or less of the substrate initially present had been deacetylated. Calculation of net fluorescence increases included subtraction of a blank value, which in the case of Sir2 was obtained by omitting the enzyme from the reaction and in the case of SIRT1 by adding an inhibitor (200 μM suramin or 1 mM nicotinamide) to the reaction prior to the acetylated substrate. […] All error bars represent the standard error of the mean.
All SIRT1 rate measurements used in the calculation of “Ratio to Control Rate” were obtained with 25 μM NAD^+ and 25 μM p53-382 acetylated peptide substrate were performed as described above and in K. T. Howitz et al. Nature (2003) 425: 191. All ratio data were calculated from experiments in which the total deacetylation in the control reaction was 0.25-1.25 μM peptide or 1-5% of the initial concentration of acetylated peptide.

These results are taken from patent US7544497B2, “Compositions for manipulating the lifespan and stress response of cells and organisms” (President and Fellows of Harvard College, priority 2003, dated 2009).

Consider `Oc1ccc(/C=C/c2cc(O)cc(O)c2)cc1` [Resveratrol, 3,5,4′-Trihydroxy-trans-stilbene], for which, in assay [1] (10 μM, complete 2% glucose medium, wild type untreated 22.9), the Average lifespan is recorded as 36.8 generations. For the same compound, the “Average lifespan, growth on resveratrol” value is reported as 35.7 generations in assay [1] (10 μM), 29.4 generations in assay [1] (100 μM) and 29.3 generations in assay [1] (500 μM). Further, in assay [1] (glucose restriction), the “Average lifespan, glucose-restricted+resveratrol (CR+R)” value was 39.9 generations. Further, the “Average lifespan, pnc1Δ+resveratrol” value in assay [1] (pnc1Δ untreated 19.2) was found to be 33.1 generations. Moreover, the “Average lifespan, sir2Δ+resveratrol” value in assay [1] (sir2Δ untreated 9.9) amounted to 10.0 generations. In addition, the “Average lifespan, wild type+resveratrol (wt+R)” value in assay [1] (wild type untreated 19.0) turned out to be 37.8 generations. For the same compound, the “activation of SIRT1 (positive controls)” value in assay [2] is listed as 2.2 fold. In assay [3] (1 mM p53-382 acetylated peptide, control 1863), the “Vmax (+resveratrol), NAD+ varied” value is reported as 1749 AFU/min. Besides, in assay [3] (3 mM NAD+, control 1107), the “Vmax (+resveratrol), p53-382 acetylated peptide varied” value turned out to be 926 AFU/min.
